The values that follow come from patent US9802960B2 (MILLENNIUM PHARMACEUTICALS, INC., priority 2014, dated 2017).

In one experiment the target is Human VPS34 (Homo sapiens (Human), UniProt Q8NEB9). Description: Human VPS34 enzyme assay (Adapta TR-FRET). It is filed as biochemical. As to conditions: compound concentration 1.11 μM.
Sequence of Human VPS34 (Q8NEB9 whole entry): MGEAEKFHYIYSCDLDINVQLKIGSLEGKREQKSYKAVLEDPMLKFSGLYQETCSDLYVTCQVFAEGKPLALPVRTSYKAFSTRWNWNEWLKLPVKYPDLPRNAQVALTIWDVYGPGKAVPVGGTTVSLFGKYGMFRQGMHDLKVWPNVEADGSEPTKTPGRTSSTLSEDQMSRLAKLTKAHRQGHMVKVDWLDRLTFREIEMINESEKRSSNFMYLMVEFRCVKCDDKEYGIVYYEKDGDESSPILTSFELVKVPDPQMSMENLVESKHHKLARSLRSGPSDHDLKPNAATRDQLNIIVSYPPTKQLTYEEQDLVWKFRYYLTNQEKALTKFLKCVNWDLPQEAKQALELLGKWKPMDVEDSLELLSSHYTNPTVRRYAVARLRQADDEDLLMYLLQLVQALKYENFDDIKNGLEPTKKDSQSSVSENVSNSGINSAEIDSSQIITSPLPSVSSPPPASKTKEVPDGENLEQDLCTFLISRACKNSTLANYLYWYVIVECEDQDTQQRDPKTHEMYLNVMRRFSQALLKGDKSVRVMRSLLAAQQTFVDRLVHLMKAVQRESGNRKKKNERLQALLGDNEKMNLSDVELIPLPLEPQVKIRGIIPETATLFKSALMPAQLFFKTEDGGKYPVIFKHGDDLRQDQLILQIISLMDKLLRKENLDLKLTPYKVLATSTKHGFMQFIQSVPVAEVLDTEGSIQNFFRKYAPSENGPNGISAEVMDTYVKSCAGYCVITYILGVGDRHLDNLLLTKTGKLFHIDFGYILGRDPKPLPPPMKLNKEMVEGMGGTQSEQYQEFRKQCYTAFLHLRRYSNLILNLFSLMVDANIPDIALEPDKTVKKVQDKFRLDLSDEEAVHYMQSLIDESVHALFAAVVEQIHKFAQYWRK
With `CC(=O)Nc1cc(-c2ccnc(Nc3ccnc(C4CC4)n3)c2)cn2nccc12` [Compound I-371, N-(6-{2-[(2-cyclopropylpyrimidin-4-yl)amino]pyridin-4-yl}pyrazolo[1,5-a]pyridin-4-yl)acetamide], the “Percent Inhibition” value is on record as above 99%.
On to `CC(=O)Nc1cc(-c2cnc(Cl)c(NS(=O)(=O)N(C)C)c2)ccn1` [Compound I-372, N-{6-chloro-5-[(dimethylsulfamoyl)amino]-3,4′-bipyridin-2′-yl}acetamide], for which the “Percent Inhibition” value was above 99%.

The experiment is the same for the next values; noted with them: compound concentration 1.11 μM; read-out: Percent Inhibition.
Consider `CC(=O)Nc1cc(-c2cncc(S(=O)(=O)NC3CC3)c2)ccn1` [Compound I-338, N-[5-(cyclopropylsulfamoyl)-3,4′-bipyridin-2′-yl]acetamide], for which the inhibition at 1.11 µM is above 99%.
As for `CC(=O)Nc1cc(-c2cnc(C)c(NS(=O)(=O)c3cccc(C)c3F)c2)ccn1` [Compound I-339, N-(5-{[(2-fluoro-3-methylphenyl)sulfonyl]amino}-6-methyl-3,4′-bipyridin-2′-yl)acetamide], the inhibition at 1.11 µM stood at 98%.
Same read-out and setting: with `CC(=O)Nc1cc(-c2cc(NS(=O)(=O)c3ccc(F)cc3F)c3ncnn3c2)ccn1` [Compound I-340, N-[4-(8-{[(2,4-difluorophenyl)sulfonyl]amino}[1,2,4]triazolo[1,5-a]pyridin-6-yl)pyridin-2-yl]acetamide] the figure was 91%.
With `CC(=O)Nc1cc(-c2cnc(C)c(N3CCCN(C)S3(=O)=O)c2)ccn1` [Compound I-343, N[6-methyl-5-(6-methyl-1,1-dioxido-1,2,6-thiadiazinan-2-yl)-3,4′-bipyridin-2′-yl]acetamide], the inhibition at 1.11 µM is above 99%.
For the molecule `COc1ncc(-c2ccnc(NC(C)=O)c2)cc1S(=O)(=O)Nc1ccc(Cl)cc1Cl` [Compound I-344, N-{5-[(2,4-dichlorophenyl)sulfamoyl]-6-methoxy-3,4′-bipyridin-2′-yl}acetamide], the inhibition at 1.11 µM is above 99%.
Consider `Cc1nccc(Nc2cc(-c3cnc(C)c(C(=O)N(C)c4ccc(F)cc4F)c3)ccn2)n1` [Compound I-346, N-(2,4-difluorophenyl)-N,6-dimethyl-2′-[(2-methylpyrimidin-4-yl)amino]-3,4′-bipyridine-5-carboxamide], for which the inhibition at 1.11 µM is 95%.
On to `COc1ncc(-c2ccnc(NC(C)=O)c2)cc1NC(=O)c1ccc(F)cc1F` [Compound I-347, N-(2′-acetamido-6-methoxy-3,4′-bipyridin-5-yl)-2,4-difluorobenzamide], for which the inhibition at 1.11 µM stood at 22%.
Same read-out and setting: with `CC(=O)Nc1cc(-c2cncc(NS(=O)(=O)N(C)C)c2)ccn1` [Compound I-348, N-{5-[(dimethylsulfamoyl)amino]-3,4′-bipyridin-2′-yl}acetamide] the figure was above 99%.
`Cc1nccc(Nc2cc(-c3cncc(C(C)OCc4ccccn4)c3)ccn2)n1` (stereo not shown) [Compound I-349, N-(2-methylpyrimidin-4-yl)-5-[1-(pyridin-2-ylmethoxy)ethyl]-3,4′-bipyridin-2′-amine]: the inhibition at 1.11 µM is 94%.
The same measure, in the same setting: to `CCCCN(CCCC)S(=O)(=O)Nc1cc(-c2ccnc(NC(C)=O)c2)cnc1C` [Compound I-350, N-{5-[(dibutylsulfamoyl)amino]-6-methyl-3,4′-bipyridin-2′-yl}acetamide] belongs above 99%; to `CC(=O)Nc1cc(-c2cnc(C)c(N3CCNS3(=O)=O)c2)ccn1` [Compound I-352, N-[5-(1,1-dioxido-1,2,5-thiadiazolidin-2-yl)-6-methyl-3,4′-bipyridin-2′-yl]acetamide], 92%.
On the same count and under the same terms, to `CC(=O)Nc1cc(-c2cnc(C)c(S(=O)(=O)Nc3ccc(F)cc3F)c2)ccn1` [Compound I-353, N-(5-(N-(2,4-difluorophenyl)sulfamoyl)-6-methyl-[3,4′-bipyridin]-2′-yl)acetamide] belongs above 99%.
On the same count and under the same terms, with `CC(=O)Nc1cc(-c2cnc(Cl)c(NS(=O)(=O)c3c(Cl)cccc3Cl)c2C)ccn1` [Compound I-354, N-(6-chloro-5-{[(2,6-dichlorophenyl)sulfonyl]amino}-4-methyl-3,4′-bipyridin-2′-yl)acetamide] the figure was 98%; with `Cc1c(-c2ccnc(Nc3ccnc(C4CC4)n3)c2)cnc(Cl)c1N` [Compound I-355, 6-chloro-N~2~′-(2-cyclopropylpyrimidin-4-yl)-4-methyl-3,4′-bipyridine-2′,5-diamine], 91%; with `CC(=O)Nc1cc(-c2cnc(C)c(NS(=O)(=O)c3ccc(C#N)cc3F)c2)ccn1` [Compound I-356, N-(5-{[(4-cyano-2-fluorophenyl)sulfonyl]amino}-6-methyl-3,4′-bipyridin-2′-yl)acetamide], above 99%.
As for `CC(=O)Nc1cc(-c2cnc(C)c(N3CC(NCc4ccccc4)CS3(=O)=O)c2)ccn1` (stereo not shown) [Compound I-357, N-{5-[4-(benzylamino)-1,1-dioxidoisothiazolidin-2-yl]-6-methyl-3,4′-bipyridin-2′-yl}acetamide], the inhibition at 1.11 µM is above 99%.
Same read-out and setting: with `COc1ncc(-c2ccnc(NC(C)=O)c2)cc1S(=O)(=O)Nc1cc(F)ccc1F` [Compound I-358, N-{5-[(2,5-difluorophenyl)sulfamoyl]-6-methoxy-3,4′-bipyridin-2′-yl}acetamide] the figure was above 99%; with `CC(=O)Nc1cc(-c2cnc(C)c(OS(=O)(=O)N(C)C)c2)ccn1` [Compound I-359, 2′-acetamido-6-methyl-3,4′-bipyridin-5-yl dimethylsulfamate], above 99%.
Regarding `Cc1c(-c2ccnc(Nc3ccnc(C4CC4)n3)c2)cnc(Cl)c1C(=O)N1CCC1` [Compound I-361, azetidin-1-yl(6-chloro-2′-((2-cyclopropylpyrimidin-4-yl)amino)-4-methyl-[3,4′-bipyridin]-5-yl)methanone], the inhibition at 1.11 µM came out at 90%.
`CC(=O)Nc1cc(-c2cnc(Cl)c(NS(=O)(=O)c3ccc(C#N)cc3Cl)c2C)ccn1` [Compound I-362, N-(6-chloro-5-{[(2-chloro-4-cyanophenyl)sulfonyl]amino}-4-methyl-3,4′-bipyridin-2′-yl)acetamide]: the inhibition at 1.11 µM is 95%.
Same read-out and setting: to `Cc1nccc(Nc2cc(-c3cnc(C)c(OCc4ccccc4)c3)ccn2)n1` [Compound I-363, 5-(benzyloxy)-6-methyl-N-(2-methylpyrimidin-4-yl)-3,4′-bipyridin-2′-amine] belongs 83%; to `CCOC(=O)Nc1cc(-c2cnc(C)c(NS(=O)(=O)N(C)C)c2)ccn1` [Compound I-364, ethyl {5-[(dimethylsulfamoyl)amino]-6-methyl-3,4′-bipyridin-2′-yl}carbamate], above 99%.
As to `CC(=O)Nc1cc(-c2cncc(S(=O)(=O)N(C)c3ccccc3)c2)ccn1` [Compound I-365, N-{5-[methyl(phenyl)sulfamoyl]-3,4′-bipyridin-2′-yl}acetamide], the inhibition at 1.11 µM was above 99%.
For the molecule `CC(=O)Nc1cc(-c2cnc(Cl)c(S(=O)(=O)NC34CC(C3)C4)c2)ccn1` [Compound I-366, N-[5-(bicyclo[1.1.1]pent-1-ylsulfamoyl)-6-chloro-3,4′-bipyridin-2′-yl]acetamide], the inhibition at 1.11 µM was above 99%.
Consider `CCNC(=O)Nc1cc(-c2ccnc(Nc3ccnc(C)n3)c2)cnc1C` [Compound I-367, 1-ethyl-3-{6-methyl-2′-[(2-methylpyrimidin-4-yl)amino]-3,4′-bipyridin-5-yl}urea], for which the inhibition at 1.11 µM came to 76%.
The same measure, in the same setting: to `Cc1ncc(-c2ccnc(Nc3ccnc(C4CC4)n3)c2)cc1NC(=O)N1CC(F)(F)C1` [Compound I-368, N-(2′-((2-cyclopropylpyrimidin-4-yl)amino)-6-methyl-[3,4′-bipyridin]-5-yl)-3,3-difluoroazetidine-1-carboxamide] belongs 96%; to `Cc1c(-c2ccnc(Nc3ccnc(C4CC4)n3)c2)cnc(Cl)c1C(=O)O` [Compound I-369, 6-chloro-2′-((2-cyclopropylpyrimidin-4-yl)amino)-4-methyl-[3,4′-bipyridine]-5-carboxylic acid], 97%; to `CCN(CC)S(=O)(=O)c1cc(-c2ccnc(NC(C)=O)c2)cnc1C` [Compound I-370, N-[5-(diethylsulfamoyl)-6-methyl-3,4′-bipyridin-2′-yl]acetamide], above 99%.
Still for that read-out and setting: with `CCCCS(=O)(=O)Nc1cc(-c2ccnc(NC(C)=O)c2)cnc1C` [Compound I-373, N-{5-[(butylsulfonyl)amino]-6-methyl-3,4′-bipyridin-2′-yl}acetamide] the figure was above 99%; with `CC(=O)Nc1cc(-c2cnc(C)c(NS(=O)(=O)N3CCC(F)(F)CC3)c2)ccn1` [Compound I-374, N-(5-{[(4,4-difluoropiperidin-1-yl)sulfonyl]amino}-6-methyl-3,4′-bipyridin-2′-yl)acetamide], above 99%.
The same measure, in the same setting: to `COc1nc(C)nc(Nc2cc(-c3cnc(C)c(NS(=O)(=O)c4ccc(F)cc4F)c3)ccn2)n1` [Compound I-375, 2,4-difluoro-N-{2′-[(4-methoxy-6-methyl-1,3,5-triazin-2-yl)amino]-6-methyl-3,4′-bipyridin-5-yl}benzenesulfonamide] belongs 99%; to `CC(=O)Nc1cc(-c2cnc3c(c2)S(=O)(=O)N(C24CC(C2)C4)CCO3)ccn1` [Compound I-376, N-{4-[2-(bicyclo[1.1.1]pent-1-yl)-1,1-dioxido-3,4-dihydro-2H-pyrido[2,3-b][1,4,5]oxathiazepin-8-yl]pyridin-2-yl}acetamide], 94%; to `CC(=O)Nc1cc(-c2cnc(C)c(NS(=O)(=O)c3cccc(F)c3F)c2)ccn1` [Compound I-377, N-(5-{[(2,3-difluorophenyl)sulfonyl]amino}-6-methyl-3,4′-bipyridin-2′-yl)acetamide], 95%.
As to `Cc1nccc(Nc2cc(-c3cnc4c(c3)C(=O)N(Cc3ccccc3)CC4)ccn2)n1` [Compound I-378, 6-benzyl-3-[2-[(2-methylpyrimidin-4-yl)amino]-4-pyridyl]-7,8-dihydro-1,6-naphthyridin-5-one], the inhibition at 1.11 µM was 66%.

Staying with this experiment, now noted: read-out: Percent Inhibition.
Consider `CC(=O)Nc1cc(-c2cnc(C)c(NS(=O)(=O)N3CCCCCC3)c2)ccn1` [Compound I-341, N-{5-[(azepan-1-ylsulfonyl)amino]-6-methyl-3,4′-bipyridin-2′-yl}acetamide], for which the inhibition at 1.11 µM is above 99%.
